Measurements taken from patent US20090036461A1, “Use of Azabicyclo Hexane Derivatives” (priority 2005, published 2009).
Entries after “also recorded” stand apart in the source; their conditions may differ.

How the values were obtained:
[1] = biological target: D3 (Homo sapiens, UniProt P35462); assay: functional pKi (fpKi) at D3, comparison of separated enantiomers; type: biochemical; conditions: difference in fpKi between the two separated enantiomers of the same example
[2] = tested on: Female Sprague Dawley rats; assay: stress-induced food intake, animal model for binge eating (diet restriction cycles + foot shock); type: in vivo
Text: Dieting is the strongest predictor of overeating in response of stress. In this specific case, binge eating or binge/purge behaviours are recognized as key features of the human diseases (bulimia nervosa or anorexia, respectively). Two critical factors seem to modulate the production of binge eating: a history of food restriction and access of high palatable (HP) food (dense in fat and sugar) and the interaction with environmental stress. Based on these premises, preclinical models can be developed to explore the potential therapeutic effect of test compounds on binge eating. One model which may be used is described by Hagan et al (Hagan, M. M. et al., Physiol and Beh 77 (2002): 45-54).
Slight modifications such as those below may be applied to their model, for example: • Instrument to deliver FS: Passive Avoidance (Gemini Avoidance System, Coubourn Instrument, San Diego) may be used instead of the 4 closed runways with metal bar floors (Coulbourn Instruments Habitest System, Allentown, Pa.). • Refeeding: 4 days instead of 6 days • HP food: Baiocchi® (Barilla) instead of Oreo® biscuits • For the submission of the animals to the pharmacological treatment, see: Placidi et al., Int J Eat Disord 2004 36 (3) 328-41
Based on the model by Hagan et al, and incorporating the above changes, a model for binge eating may be set up as follows. Female Sprague Dawley rats (7 weeks old) can be single housed at 21±1 C and under a 12 h/12 h light/dark cycle (dark phase: 18:00-06:00) for all the period of the experiment. Before beginning, rats can be habituated to these conditions for 7 days. The rats can then be divided into 2 groups (16 animals/group). One group may take food ad lib (non restricted group: NR) for the 24 days of the experiment, while the other (Restricted Group: R) may receive a restricted diet (66% of the quantity food intake that the other control group was eating) during 4 days, and eat ad lib for the following 4 days. This cycle can be repeated 3 times. Following the last day of refeeding, each group can be subdivided in two. Eight animals of group NR and 8 animals of group R can receive a stress stimulus (4 Foot Shocks (FS) of 0.6 mA separated by 15 sec intervals) while the other 2 subgroups can remain in the same cage where FS is delivered for the same period of time, but without receiving the FS (no shocked: NS). The 4 groups are S/NR, NS/NR, S/R and NS/R. Immediately following time in the shock apparatus, rats can be submitted to a pharmacological treatment (administration of the test compound or of the vehicle) and then be returned to the animal colony. A pre-measured amount of pellets or HP food (Baiocchie) can be put in each cage, and food intake measured after 4 h. Food intake can be expressed in kcal.
Rationale—The effects of the title compound, prepared in an analogous way with Example 123, were tested in the animal model discussed above. The aim of the present study was to assess the effect of this compound in animals that received 3 cycles of diet (restricted:R) and stress (shocked) conditions similar to binge eating in humans.
Methods—Female Sprague Dawley rats (7-week old) were single housed at 21±1° C. and under a 12 h/12 h light/dark cycle (dark phase: 18:00-06:00) for all the entire experimental period. Rats received a restricted diet (66% of the food intake vs. control group) during 4 days, and ate ad libitum for the following 4 days. This cycle was repeated 3 times. Additionally, two other groups were eating ad libitum (not restricted: NR) and received the shock (NR/S). Following the last day of refeeding, the animals received a stress stimulus (4 Foot Shocks (FS) of 0.6 mA separated by 15 sec intervals) and received vehicle or the title compound (0.03, 0.3 or 3 mg/kg i.p.) immediately after the shock. These were the S/R (shocked/Restricted) rats. The S/NR rats received the shock and vehicle or the title compound (prepared in an analogous way with Example 123; 3 mg/kg i.p.) in the same way as the S/R groups. […]

[3] = S/NR (shocked/not restricted) rats, 3 mg/kg i.p. after foot shock
[4] = S/R (shocked/restricted) rats, 0.03 mg/kg i.p. after foot shock
[5] = S/R (shocked/restricted) rats, 0.3 mg/kg i.p. after foot shock
[6] = S/R (shocked/restricted) rats, 3 mg/kg i.p. after foot shock

Chain of D3 (P35462 whole entry): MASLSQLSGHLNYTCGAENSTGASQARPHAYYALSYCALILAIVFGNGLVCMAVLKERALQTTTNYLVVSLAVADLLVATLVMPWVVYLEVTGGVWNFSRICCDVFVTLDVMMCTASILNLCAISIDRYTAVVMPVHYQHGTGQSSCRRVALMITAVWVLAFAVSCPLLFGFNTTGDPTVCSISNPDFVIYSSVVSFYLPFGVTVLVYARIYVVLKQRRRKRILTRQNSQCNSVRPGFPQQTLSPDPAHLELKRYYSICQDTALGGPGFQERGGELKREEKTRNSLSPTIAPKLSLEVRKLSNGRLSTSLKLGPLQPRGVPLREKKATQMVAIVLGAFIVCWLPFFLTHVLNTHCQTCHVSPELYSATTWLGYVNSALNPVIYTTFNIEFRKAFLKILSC

fpKi (D3) higher than the other enantiomer [1] [log-unit]	Compound	also measured
> 1	COc1ccc([C@]23C[C@H]2CN(CCCSc2nnc(-c4cccc5nc(C)ccc45)n2C)C3)cc1 (single isomer, unassigned) [Example 1 Enantiomer 1]	
> 1	Cc1ccc2c(-c3nnc(SCCCN4C[C@@H]5C[C@]5(c5ccccc5)C4)n3C)cccc2n1 (single isomer, unassigned) [Example 3 Enantiomer 2]	
> 1	COc1ccc([C@]23C[C@H]2CN(CCCSc2nnc(-c4ocnc4C)n2C)C3)cc1C(C)=O (single isomer, unassigned) [Example 19 Enantiomer 1]	
> 1	Cc1ncoc1-c1nnc(SCCCN2C[C@]3(C)C[C@@]3(c3cccc(Cl)c3)C2)n1C (single isomer, unassigned) [Example 22 Enantiomer 1]	
> 1	Cc1ncoc1-c1nnc(SCCCN2C[C@@H]3C[C@]3(c3cccc(F)c3)C2)n1C (single isomer, unassigned) [Example 23 Enantiomer 1]	
> 1	COc1cccc([C@]23C[C@H]2CN(CCCSc2nnc(-c4ocnc4C)n2C)C3)c1 (single isomer, unassigned) [Example 24 Enantiomer 1]	
> 1	Cc1ncoc1-c1nnc(SCCCN2C[C@@H]3C[C@]3(c3cc(C(F)(F)F)ccc3F)C2)n1C (single isomer, unassigned) [Example 36 Enantiomer 2]	
> 1	CCC(=O)c1cc([C@]23C[C@H]2CN(CCCSc2nnc(-c4ocnc4C)n2C)C3)ccc1OC (single isomer, unassigned) [Example 71 Enantiomer 1]	
> 1	Cc1nc2cc([C@]34C[C@H]3CN(CCCSc3nnc(-c5ocnc5C)n3C)C4)ccc2s1 (single isomer, unassigned) [Example 72 Enantiomer 1]	
> 1	Cc1ncoc1-c1nnc(SCCCN2C[C@@H]3C[C@]3(c3ccc4c(cnn4C)c3)C2)n1C (single isomer, unassigned) [Example 74 Enantiomer 1]	
> 1	Cc1ncoc1-c1nnc(SCCCN2C[C@@H]3C[C@]3(c3ccc(C(F)(F)F)cn3)C2)n1C (single isomer, unassigned) [Example 96 Enantiomer 2]	
> 1	Cc1ncoc1-c1nnc(SCCCN2C[C@@H]3C[C@]3(c3ccc(OC(F)(F)F)cc3)C2)n1C (single isomer, unassigned; enantiomer 1) [Example 30 Enantiomer 1]	

Further lines, the molecule ahead of its results:

Compound	fpKi (D3) higher than the other enantiomer [1] [log-unit]	also measured
Cc1ccc2c(-c3nnc(SCCCN4C[C@@H]5C[C@]5(c5ccc(Br)cc5)C4)n3C)cccc2n1 (single isomer, unassigned) [Example 2 Enantiomer 2]	> 1	
Cc1ccc2c(-c3nnc(SCCCN4C[C@@H]5C[C@]5(c5ccc(Cl)c(Cl)c5)C4)n3C)cccc2n1 (single isomer, unassigned) [Example 4 Enantiomer 1]	> 0.6	
Cc1ccc2c(-c3nnc(SCCCN4C[C@@H]5C[C@]5(c5ccc(C(C)(C)C)cc5)C4)n3C)cccc2n1 (single isomer, unassigned) [Example 5 Enantiomer 2]	> 0.9	
Cc1ncoc1-c1nnc(SCCCN2C[C@@H]3C[C@]3(c3ccc(Br)cc3)C2)n1C (single isomer, unassigned) [Example 9 Enantiomer 1]	> 1	
Cc1ncoc1-c1nnc(SCCCN2C[C@@H]3C[C@]3(c3ccc(Cl)cc3)C2)n1C (single isomer, unassigned) [Example 20 Enantiomer 1]	> 1	
Cc1ncoc1-c1nnc(SCCCN2C[C@@H]3C[C@]3(c3ccc(F)cc3)C2)n1C (single isomer, unassigned) [Example 21 Enantiomer 1]	> 1	
Cn1c(SCCCN2C[C@@H]3C[C@]3(c3ccc(OC(F)(F)F)cc3)C2)nnc1C1CCOCC1 (single isomer, unassigned) [Example 33 Enantiomer 1]	> 1	
Cc1ncoc1-c1nnc(SCCCN2C[C@]3(C)C[C@@]3(c3ccc(C(F)(F)F)c(F)c3)C2)n1C (single isomer, unassigned) [Example 61 Enantiomer 1]	> 2	
Cc1ncoc1-c1nnc(SCCCN2C[C@@H]3C[C@]3(c3cc(F)cc(C(F)(F)F)c3)C2)n1C (single isomer, unassigned; enantiomer 1) [Example 110 Enantiomer 1]	> 1	
Cc1ncoc1-c1nnc(SCCCN2C[C@@H]3C[C@]3(c3cccc(C(F)(F)F)c3F)C2)n1C (single isomer, unassigned; enantiomer 2) [Example 111 Enantiomer 2]	> 1	
Cc1ncoc1-c1nnc(SCCCN2C[C@@H]3C[C@]3(c3ccc(C(F)(F)F)cc3F)C2)n1C.O=C(O)[C@H](O)[C@@H](O)C(=O)O [Example 123, (1S,5R)-1-[2-Fluoro-4-(trifluoromethyl)phenyl]-3-(3-{[4-methyl-5-(4-methyl-1,3-oxazol-5-yl)-4H-1,2,4-triazol-3-yl]thio}propyl)-3-azabicyclo[3.1.0]hexane tartrate]		inhibitory effect in non-stressed animals, in respect to controls ([2]; 3 mg/kg i.p., result in words, tartrate): did not show any inhibitory effect; also recorded: No significant effects; Chow Intake after 4 h [2, 3]: 1.92 ± 0.66 kcal; HP Intake after 4 h [2, 3]: 8.73 ± 2.75 kcal; Total Food Intake after 4 h [2, 3]: 10.65 ± 2.75 kcal; Chow Intake after 4 h [2, 4]: 1.95 ± 0.58 kcal; HP Intake after 4 h [2, 4]: 17.11 ± 2.49 kcal; Total Food Intake after 4 h [2, 4]: 19.06 ± 2.44 kcal; Chow Intake after 4 h [2, 5]: 2.09 ± 0.74 kcal; HP Intake after 4 h [2, 5]: 14.44 ± 2.15 kcal; Total Food Intake after 4 h [2, 5]: 16.54 ± 1.94 kcal; Chow Intake after 4 h [2, 6]: 2.62 ± 0.79 kcal; HP Intake after 4 h [2, 6]: 8.89 ± 1.90 kcal; Total Food Intake after 4 h [2, 6]: 11.51 ± 1.99 kcal; effect on total Food Intake ([2]; S/R rats, highest dose of 3 mg/kg, 1-way ANOVA, result in words): significantly decreased total food intake; effect on HP intake ([2]; S/R rats, highest dose of 3 mg/kg, Dunnett's p<0.01, result in words): significantly decreased HP intake; effect on Chow intake ([2]; S/R rats, highest dose of 3 mg/kg, Dunnett's p<0.05, result in words): significantly decreased chow Intake; effect on stress-induced overeating ([2]; result in words): significant inhibitory effect on stress-induced overeating
